Reference: patent US20060135571A1, “Imidazo(2,1-b)-1,3,4-thiadiazole sulfoxides and sulfones” (priority 2003, published 2006)

Tests used:
SCG neurons [1] = experiment: In vitro protection of SCG neurons from Taxol killing; assay type: cell-based, Sprague Dawley rats; details: Rattus norvegicus, Neuron, read-out: IC50, rescue from Taxol killing of SCG neurons
Procedure: Taxol™ is regularly used in breast cancer chemotherapy. In cancer cells Taxol™ binds to the cyto-skeletal protein tubulin, thereby inhibiting normal microtubular assembly and inducing cellular apoptosis. Despite its potency as an anti-tumour agent, Taxol™ is also toxic to neurons, inducing dose limiting peripheral neuropathies. The addition of Taxol™ (100 ng/mL) to cultured SCG neurons induces the degradation or loss of upwards of 80% of the neurons. The addition of selected compounds of Formula I to the cellular media, concurrently with Taxol™, protects upwards of 100% of the neurons, at drug concentrations ranging from 1 to 50 μM (see Example 74).
(§1) SCG neurons were isolated from day 1 neonatal Sprague Dawley rats, plated at a cell density of 10,000 cells/well, and incubated in Biowhittaker Utraculture containing 1% Penstrep, 1% L-glutamine, 0.7% ARAC, 3% rat serum, and NGF (50 ng/mL, Calomone Labs) at 37° C., under a 5% CO2 atmosphere. After 5 days the cells were treated with compound and Taxol™ (50 ng/mL). Viability was assessed 48 hours later using MTS (Promega) staining.

SCG neurons [2] = experiment: In vitro protection of SCG neurons from cisplatin killing; assay type: cell-based, Sprague Dawley rats; details: Rattus norvegicus, Neuron; cisplatin 3 μg/mL, 48 hours, MTS viability; read-out: IC50, protection of SCG neurons against cisplatin killing
Procedure: The mechanism of Cisplatin's anti-cancer action is not fully understood, but is believed to involve DNA binding and cleavage. Cisplatin is highly toxic to neurons. The addition of cisplatin (3 μg/mL) to cultured SCG neurons induces apoptosis of upwards of 80% of the neurons. The addition of selected compounds of Formula I to the cellular media, concurrently with cisplatin, protects upwards of 100% of the neurons, at drug concentrations ranging from 1 to 50 μM (see Example 75).
as §1, with “cisplatin (3 μg/mL).” for “Taxol™ (50 ng/mL).”

SCG neurons [3] = experiment: Protection of SCG neurons from anti-NGF killing; assay type: cell-based, Sprague Dawley rats; details: Rattus norvegicus, Neuron; anti-NGF antibody, 48 hours, Alamar Blue viability; read-out: IC(50), rescue from anti-NGF killing of SCG neurons
Procedure: Neurotrophins are critical to the growth, development, and survival of small fiber neurons of the PNS. […] In a typical experiment SCG neurons are cultured in the presence of NGF, which induces survival and neurite out-growth. After 5 days the NGF is removed by either the addition of anti-NGF polyclonal antibody (Sigma) or by repeated washings (4 times) with NGF free media, resulting in the apoptosis of up to 90% of the neurons after 48 hours, as measured by MTS staining. The addition of selected compounds of Formula I to the final cellular media provides upwards of 100% protection, at drug concentrations ranging from 1 to 50 μM (see Example 73).
SCG neurons were isolated from day 1 neonatal Sprague Dawley rats, plated at a cell density of 5,000 cells/well, and incubated in Biowhittaker Utraculture containing 1% Penstrep, 1% L-glutamine, 0.7% ARAC, 3% rat serum, and NGF (50 ng/mL, Calomone Labs), at 37° C., under a 5% CO2 atmosphere. After 4 days the cells were treated with anti-NGF antibody (Sigma). At this time compound was added and the cells were maintained serum and NGF free for 48 hours, at which time viability was assessed using Alamar Blue (Medicorp) staining.

SK-N-AS = experiment: Sulforhodamine B assay, killing of SK-N-AS neuroblastoma cells; assay type: cell-based, Human
Procedure: (§2) Compound represented by Formula I were tested for anti-cancer properties using the sulforhodamine B assay. Human neuroblastomas SK-N-AS, and SH-SY5Y were plated in 96 well plates at a density of 15 000 cells/well. Daoy medulloblastoma cells were plated at a density of 2000 cells/well. Cells were cultured in RPMI supplemented with 5% fetal bovine serum and test compounds. After 72 hours of culture cell growth was assessed by sulforhodamine B. Cellular protein was precipitated and fixed with trichloroacetic acid and detected by incubation with sulforhodamine B. Bound dye solubilized in trizma base and was assessed by absorbance at 515 nm. Compound 28 caused either cell death or inhibited cellular proliferation of the SK-N-AS and SH-SY5Y neuroblastoma and daoy medulloblastoma cells with ED50s of 7, 5, and 2 µM, respectively.
(§3) Human neuroblastomas SK-N-AS, and SH-SY5Y were plated in 96 well plates at a density of 15 000 cells/well. Daoy medulloblastoma cells were plated at a density of 2000 cells/well. Cells were cultured in RPMI supplemented with 5% fetal bovine serum and test compound at various concentrations. After 72 hours of culture cell growth was assessed by sulforhodamine B. Cellular protein was precipitated and fixed with trichloroacetic acid and detected by incubation with sulforhodamine B. Bound dye solublized in trizma base and was assessed by absorbance at 515 nm.

SH-SY5Y = experiment: Sulforhodamine B assay, killing of SH-SY5Y neuroblastoma cells; assay type: cell-based, Human
Procedure: as §2, §3

[4] = system: Daoy medulloblastoma cells; experiment: Sulforhodamine B assay, killing of Daoy medulloblastoma cells; assay type: cell-based
Procedure: as §2, §3

[5] = Aqueous solubility in saline; assay type: physicochemical; details: saline or isotonic, acid salt
Procedure: Select compounds bearing a basic moiety display good aqueous solubility as the corresponding acid salt. For example, compound 56.2HCl is soluble at >100 mg/mL in saline, allowing for the ready application of these compounds via multiple routes of administration either oral or percutaneous.

[6] = Taxol 50 ng/mL, 48 hours, MTS viability

Row | Compound | IC50 (SCG neurons [1]; [6]) | also measured
1 | [O-][S+](Cc1ccccc1)c1nn2cc(-c3c(F)c(F)c(F)c(F)c3F)nc2s1 (stereo not drawn) [Compound 1] | 1000 nM | 
2 | O=S(=O)(Cc1ccccc1)c1nn2cc(-c3c(F)c(F)c(F)c(F)c3F)nc2s1 [Compound 2] |  | IC50 (SCG neurons [2]): 800 nM
3 | [O-][S+](CCc1ccccc1)c1nn2cc(-c3ccc(Oc4ccc(Cl)cc4)cc3)nc2s1 (stereo not drawn) [Compound 3] | 7000 nM | IC50 (SCG neurons [3]): 8000 nM
4 | O=S(=O)(CCc1ccccc1)c1nn2cc(-c3ccc(Oc4ccc(Cl)cc4)cc3)nc2s1 [Compound 4] | 1000 nM | IC50 (SCG neurons [3]): 6000 nM
5 | [O-][S+](Cc1ccccn1)c1nn2cc(-c3ccccc3)nc2s1 (stereo not drawn) [Compound 5] | 1000 nM | 
6 | O=S(=O)(Cc1ccccn1)c1nn2cc(-c3ccccc3)nc2s1 [Compound 6] | 1500 nM | 
7 | O=S(=O)(Cc1cccnc1)c1nn2cc(-c3ccccc3)nc2s1 [Compound 8] | 800 nM | 
8 | [O-][S+](Cc1ccncc1)c1nn2cc(-c3ccccc3)nc2s1 (stereo not drawn) [Compound 9] | 800 nM | 
9 | O=S(=O)(Cc1ccncc1)c1nn2cc(-c3ccccc3)nc2s1 [Compound 10] | 800 nM | 
10 | [O-][S+](Cc1ccccn1)c1nn2cc(-c3cccc(F)c3)nc2s1 (stereo not drawn) [Compound 13] | 1000 nM | 
11 | O=S(=O)(Cc1ccccn1)c1nn2cc(-c3cccc(F)c3)nc2s1 [Compound 14] | 3000 nM | 
12 | [O-][S+](Cc1ccccn1)c1nn2cc(-c3ccc(Oc4ccc(Cl)cc4)cc3)nc2s1 (stereo not drawn) [Compound 15] | 1000 nM | 
13 | O=S(=O)(Cc1ccccn1)c1nn2cc(-c3ccc(Oc4ccc(Cl)cc4)cc3)nc2s1 [Compound 16] | 500 nM | IC50 (SCG neurons [2]): 500 nM
14 | [O-][S+](Cc1ccncc1)c1nn2cc(-c3ccc(Oc4ccc(Cl)cc4)cc3)nc2s1 (stereo not drawn) [Compound 17] | 2000 nM | IC50 (SCG neurons [2]): 300 nM
15 | O=S(=O)(Cc1ccncc1)c1nn2cc(-c3ccc(Oc4ccc(Cl)cc4)cc3)nc2s1 [Compound 18] |  | IC50 (SCG neurons [2]): 300 nM
16 | [O-][S+](CCc1ccccn1)c1nn2cc(-c3ccc(F)cc3)nc2s1 (stereo not drawn) [Compound 19] | 6000 nM | IC50 (SCG neurons [2]): 800 nM
17 | [O-][S+](CCN1CCOCC1)c1nn2cc(-c3ccc(F)cc3)nc2s1 (stereo not drawn) [Compound 28] | 5000 nM | IC50 (SCG neurons [2]): 1000 nM; ED50, cell death or inhibited cellular proliferation (SK-N-AS; 72 hours, sulforhodamine B): 7000 nM; concentration at which the cell line is potently killed in vitro (as low as) (SK-N-AS; FIG. 1, sulforhodamine B): ≥ 5 µM; ED50, cell death or inhibited cellular proliferation (SH-SY5Y; 72 hours, sulforhodamine B): 5 µM; concentration at which the cell line is potently killed in vitro (as low as) (SH-SY5Y; FIG. 1, sulforhodamine B): ≥ 5 µM; ED50, cell death or inhibited cellular proliferation ([4]; 72 hours, sulforhodamine B): 2000 nM; concentration at which the cell line is potently killed in vitro (as low as) ([4]; FIG. 1, sulforhodamine B): ≥ 5 µM
18 | CN(C)CC[S+]([O-])c1nn2cc(-c3cccc(F)c3)nc2s1 (stereo not drawn) [Compound 29] | 1000 nM | IC50 (SCG neurons [2]): 3000 nM
19 | [O-][S+](Cc1ccncc1)c1nn2cc(-c3ccc(N4CCOCC4)cc3)nc2s1 (stereo not drawn) [Compound 30] | > 10000 nM | 
20 | CC[S+]([O-])c1nn2cc(-c3ccc(OCCO)cc3)nc2s1 (stereo not drawn) [Compound 32] | 5000 nM | 
21 | CCS(=O)(=O)c1nn2cc(-c3ccc(OCCO)cc3)nc2s1 [Compound 33] | 1000 nM | 

Row | Compound | IC50 (SCG neurons [1]; [6]) | also measured
22 | CC(C)(C)OC(=O)NCC[S+]([O-])c1nn2cc(-c3ccccn3)nc2s1 (stereo not drawn) [Compound 35] | 2000 nM | 
23 | CC[S+]([O-])c1nn2cc(-c3ccccn3)nc2s1 (stereo not drawn) [Compound 37] | 2000 nM | 
24 | CC[S+]([O-])c1nn2cc(-c3cnccn3)nc2s1 (stereo not drawn) [Compound 40] | 3000 nM | 
25 | NCCS(=O)(=O)c1nn2cc(-c3ccccc3)nc2s1 [Compound 44] | 2000 nM | IC50 (SCG neurons [2]): 2000 nM
26 | CS(=O)(=O)NCCS(=O)(=O)c1nn2cc(-c3ccccc3)nc2s1 [Compound 45] |  | IC50 (SCG neurons [2]): 1000 nM
27 | CN(C)CC(=O)NCCS(=O)(=O)c1nn2cc(-c3ccc(F)cc3)nc2s1 [Compound 48] | 800 nM | 
28 | CC(=O)Nc1ccc(S(=O)(=O)c2nn3cc(-c4ccccn4)nc3s2)cc1 [Compound 52] | 1000 nM | 
29 | CN1CCN(CC[S+]([O-])c2nn3cc(-c4ccccc4)nc3s2)CC1 (stereo not drawn) [Compound 54] | 3000 nM | 
30 | CN1CCCN(CC[S+]([O-])c2nn3cc(-c4ccccc4)nc3s2)CC1 (stereo not drawn) [Compound 56.2HCl] |  | solubility [5]: > 100 mg/mL
31 | CN1CCCN(CC[S+]([O-])c2nn3cc(-c4ccccc4)nc3s2)CC1 (stereo not drawn) [Compound 56] | 1000 nM | 
32 | [O-][S+](CCN1CCNCC1)c1nn2cc(-c3ccccc3)nc2s1 (stereo not drawn) [Compound 58] | 1000 nM | 
33 | CC(=O)N1CCN(CC[S+]([O-])c2nn3cc(-c4ccccc4)nc3s2)CC1 (stereo not drawn) [Compound 60] | 1000 nM | 
34 | [O-][S+](CCN1CCCCC1)c1nn2cc(-c3ccccc3)nc2s1 (stereo not drawn) [Compound 61] | 10000 nM | 
35 | [O-][S+](CCN1CCC(O)CC1)c1nn2cc(-c3ccccc3)nc2s1 (stereo not drawn) [Compound 62] | 10000 nM | 
36 | [O-][S+](CCN1CCC(Cc2ccccc2)CC1)c1nn2cc(-c3ccccc3)nc2s1 (stereo not drawn) [Compound 63] |  | IC50 (SCG neurons [1]; 48 h): 10000 nM
37 | CC(=O)N1CCN(CC[S+]([O-])c2nn3c(-c4ccccc4)cnc3s2)CC1 (stereo not drawn) [Compound 65] | 10000 nM | 
38 | [O-][S+](CCN1CCN(Cc2ccccc2)CC1)c1nn2c(-c3ccccc3)cnc2s1 (stereo not drawn) [Compound 66] | 10000 nM | 
39 | CN1CCN(CCC[S+]([O-])c2nn3cc(-c4ccccc4)nc3s2)CC1 (stereo not drawn) [Compound 69] | 1000 nM | IC50 (SCG neurons [2]): 1000 nM
40 | CN1CCN(CC[S+]([O-])c2nn3cc(-c4ccc(F)cc4)nc3s2)CC1 (stereo not drawn) [Compound 70] | 1000 nM | IC50 (SCG neurons [2]): 1000 nM
41 | CN1CCN(CC[S+]([O-])c2nn3cc(-c4ccc5c(c4)OCCCO5)nc3s2)CC1 (stereo not drawn) [Compound 71] | 3000 nM | 
